In US20250170122A1, “CERTAIN CHEMICAL ENTITIES, COMPOSITIONS AND METHODS” (Intellikine LLC, priority 2009, published 2025):
Entries after “also recorded” stand apart in the source; their conditions may differ.

Key:
[1] = system: collagen induced developing arthritis model; assay: Rat developing type II collagen induced arthritis assay; format: in vivo; details: for increase in ankle diameter over time: dose not stated
Procedure: In order to study the effects of the compounds of the present invention on the autoimmune disease arthritis, a collagen induced developing arthritis model was used. Female Lewis rats were given collagen injections at day 0. Bovine type II collagen was prepared as a 4 mg/ml solution in 0.01 N acetic acid. Equal volumes of collagen and Freund's incomplete adjuvant were emulsified by hand mixing until a bead of the emulsified material held its form in water. Each rodent received a 300 μl injection of the mixture at each injection time spread over three subcutaneous sites on the back.
Oral compound administration began on day 0 and continued through day 16 with vehicle (5% NMP, 85% PEG 400, 10% Solutol) or compounds of the present invention in vehicle or control (e.g. methotrexate) at 12 hour intervals daily. Rats were weighed on days 0, 3, 6, 9-17 and caliper measurements of ankles taken on days 9-17. Final body weights were taken, and then the animals were euthanized on day 17. After euthanization, blood was drawn and hind paws and knees were removed. Blood was further processed for pharmacokinetics experiments as well as an anti-type II collagen antibody ELISA assay. Hind paws were weighed and then with the knees preserved in 10% formalin. The paws and knees were subsequently processed for microcopy. Livers, spleen and thymus were also weighed. Sciatic nerves were prepared for histopathology.
Knee and ankle joints were fixed for 1-2 days and decalcified for 4-5 days. Ankle joints were cut in half longitudinally, knees were cut in half along the frontal plane. Joints were then processed, embedded, sectioned and stained with toluidine blue. Scoring of the joints was done according to the following criteria:
Percent inhibition of paw weight and AUC was calculated using the following formula:
% Inhibition=A−B/A×100 • A=Mean Disease Control—Mean Normal • B=Mean Treated—Mean Normal

[2] = system: p110δ or p110γ relative to p110α, p110β, DNAPK and/or mTor
Procedure: IC50 values are measured using either a standard TLC assay for lipid kinase activity (described below) or a high-throughput membrane capture assay. Kinase reactions are performed by preparing a reaction mixture containing kinase, inhibitor (2% DMSO final concentration), buffer (25 mM HEPES, pH 7.4, 10 mM MgCl2), and freshly sonicated phosphatidylinositol (100 μg/ml). Reactions are initiated by the addition of ATP containing 10 μCi of γ-32P-ATP to a final concentration 10 or 100 μM and allowed to proceed for 5 minutes at room temperature. For TLC analysis, reactions are then terminated by the addition of 105 μl 1N HCl followed by 160 μl CHCl3:MeOH (1:1). The biphasic mixture is vortexed, briefly centrifuged, and the organic phase is transferred to a new tube using a gel loading pipette tip precoated with CHCl3. This extract is spotted on TLC plates and developed for 3-4 hours in a 65:35 solution of n-propanol:1 M acetic acid. The TLC plates are then dried, exposed to a phosphorimager screen (Storm, Amersham), and quantitated.
Briefly, the assay is a time resolved FRET assay that indirectly measures PIP3 product formed by the activity of a PI3-K. The kinase reaction is performed in a microtitre plate (e.g., a 384 well microtitre plate). The total reaction volume is approximately 20 ul per well. In the first step, each well receives 2 ul of test compound in 20% dimethylsulphoxide resulting in a 2% DMSO final concentration. Next, approximately 14.5 ul of a kinase/PIP2 mixture (diluted in 1× reaction buffer) is added per well for a final concentration of 0.25-0.3 ug/ml kinase and 10 uM PIP2. […] To start the reaction, 3.5 ul of ATP (diluted in 1× reaction buffer) is added per well for a final concentration of 10 uM ATP. The plate is sealed and incubated for 1 hour at room temperature. The reaction is stopped by adding 5 ul of Stop Solution per well and then 5 ul of Detection Mix is added per well. The plate is sealed, incubated for 1 hour at room temperature, and then read on an appropriate plate reader. Data is analyzed and IC50s are generated using GraphPad Prism 5.
DNA-PK can be purchased from Promega and assayed using the DNA-PK Assay System (Promega) according to the manufacturer's instructions.
The cross-activity or lack thereof of one or more compounds of the present invention against mTor can be measured according to any procedures known in the art or methods disclosed below. The compounds described herein can be tested against recombinant mTOR (Invitrogen) in an assay containing 50 mM HEPES, pH 7.5, 1 mM EGTA, 10 mM MgCl2, 2.5 mM, 0.01% Tween, 10 μM ATP (2.5 μCi of μ-32P-ATP), and 3 μg/mL BSA. Rat recombinant PHAS-¼EBP1 (Calbiochem; 2 mg/mL) is used as a substrate. Reactions are terminated by spotting onto nitrocellulose, which is washed with 1 M NaCl/1% phosphoric acid (approximately 6 times, 5-10 minutes each). Sheets are dried and the transferred radioactivity quantitated by phosphorimaging.
Other kits or systems for assaying mTOR activity are commercially available. For instance, one can use Invitrogen's LanthaScreen™ Kinase assay to test the inhibitors of mTOR disclosed herein. This assay is a time resolved FRET platform that measures the phosphorylation of GFP labeled 4EBP1 by mTOR kinase. The kinase reaction is performed in a white 384 well microtitre plate. The total reaction volume is 20 ul per well and the reaction buffer composition is 50 mM HEPES pH7.5, 0.01% Polysorbate 20, 1 mM EGTA, 10 mM MnCl2, and 2 mM DTT.

[3] = system: established type II collagen induced arthritis; assay: Rat established type II collagen induced arthritis assay; format: in vivo; details: oral
Procedure: In order to examine the dose responsive efficacy of the compounds of the present invention in inhibiting the inflammation, cartilage destruction and bone resorption of 10 day established type II collagen induced arthritis in rats, compounds were administered orally daily or twice daily for 6 days.
Female Lewis rats were anesthetized and given collagen injections prepared and administered as described previously on day 0. On day 6, animals were anesthetized and given a second collagen injection. Caliper measurements of normal (pre-disease) right and left ankle joints were performed on day 9. On days 10-11, arthritis typically occurred and rats were randomized into treatment groups. Randomization was performed after ankle joint swelling was obviously established and there was good evidence of bilateral disease.
After an animal was selected for enrollment in the study, treatment was initiated by the oral route. Animals were given vehicle, control (Enbrel) or compound doses, twice daily or once daily (BID or QD respectively). Dosing was administered on days 1-6 using a volume of 2.5 ml/kg (BID) or 5 ml/kg (QD) for oral solutions. Rats were weighed on days 1-7 following establishment of arthritis and caliper measurements f ankles taken every day. Final body weights were taken on day 7 and animals were euthanized.

[4] = system: adjuvant induced arthritis model; assay: Adjuvant induced arthritis assay; format: in vivo
Procedure: Isoflurane-anesthetized Lewis rats (200-250 g) were implanted with an intrathecal (IT) catheter. After a 6 d recovery period, all animals except those that appeared to have sensory or motor abnormalities (fewer than 5% of the total number) were used for experiments. For IT administration, 10 μl of drug or saline followed by 10 μl of isotonic saline was injected through the catheter.
Lewis rats were immunized at the base of the tail with 0.1 ml of complete Freund's adjuvant (CFA) on day 0 several days after catheter implantation (n=6/group). Drug (e.g. one or more compounds of the present invention or vehicle) treatment was generally started on day 8 and continued daily until day 20. Clinical signs of arthritis generally begin on day 10, and paw swelling was determined every second day by water displacement plethysmometry.

basophilic granulocytes = assay: Basotest assay; format: cell-based; details: heparinized whole blood; dust mite or grass extract
Procedure: The baseotest assay is performed using Orpegen Pharma Basotest reagent kit. Heparinized whole blood is pre-incubated with test compound or solvent at 37° C. for 20 min. Blood is then incubated with assay kit stimulation buffer (to prime cells for response) followed by allergen (dust mite extract or grass extract) for 20 min. The degranulation process is stopped by incubating the blood samples on ice. The cells are then labeled with anti-IgE-PE to detect basophilic granulocytes, and anti-gp53-FITC to detect gp53 (a glycoprotein expressed on activated basophils). After staining red blood cells are lysed by addition of Lysing Solution. Cells are washed, and analyzed by flow cytometry.

[5] = system: LPS-induced lung inflammation model; assay: LPS-induced lung inflammation assay; format: in vivo, rats; details: oral; bronchoalveolar lavage 6 h after intranasal LPS
Procedure: To perform the LPS-induced lung inflammation assay, compounds were dosed orally. A group was dosed with vehicle only and dexamethasone (5 mg/kg) was used in another group as positive control. Pulmonary inflammation was determined 6 h after intranasal instillation of LPS (10 μg). The following parameters were evaluated: total number of leukocytes and number of neutrophils in bronchoalveolar lavage (BAL).

[6] = system: OVA-induced allergic lung inflammation model; assay: Ovalbumin-induced lung inflammation assay; format: in vivo, rats; details: oral; bronchoalveolar lavage after 4 daily ovalbumin challenges
Procedure: In the ovalbumin-induced lung inflammation assay, compounds were dosed orally. A group was dosed with vehicle only and dexamethasone (5 mg/kg) was used in another group as positive control. Pulmonary inflammation was determined 4 days after 4 consecutive daily intranasal instillation of ovalbumin. Compounds were given by gavage 30 min before each challenge (4 challenges) at the indicated doses. The following parameters were evaluated: Total number of leukocytes and number of eosinophils in bronchoalveolar lavage (BAL).

| SMILES | selectivity ratio [2] | further results |
| --- | --- | --- |
| C[C@H](Nc1ncnc2[nH]cnc12)c1cc2cccc(Cl)c2c(=O)n1C1CC1 [compound 270, (S)-3-(1-(9H-purin-6-ylamino)ethyl)-2-cyclopropyl-8-chloro-isoquinolin-1(2H)-one] |  | increase in ankle diameter over time [1]: reducing the increase in ankle diameter over time |
| Nc1ncnc2c1c(-c1cn[nH]c1)nn2Cc1cc2cccc(Cl)c2c(=O)n1-c1ccccc1F [Compound 337] | ≥ 3 |  |
| CC(=O)Nc1nc2ccc(-c3nn(Cc4cc5cccc(C)c5c(=O)n4-c4ccccc4C)c4ncnc(N)c34)cc2s1 [Compound 53] |  | ankle histopathology, all categories ([1]; 60 mg/kg): statistically significant reduction in all categories of ankle histopathology; serum anti-type II collagen levels ([1]; 10, 20, and 60 mg/kg dosage levels): reducing the level of anti-type II collagen antibodies; also recorded: significant reduction; mean ankle diameter increase over time ([1]; 10, 30, and 60 mg/kg at 12 hour intervals, oral, relative to vehicle or methotrexate control): significant reduction in arthritis induced ankle diameter increase over time; ankle histopathology (inflammation, pannus, cartilage damage, bone resorption) ([1]; developing arthritis, oral): improving ankle histopathology; also recorded: significant reduction in one or more categories; knee histopathology ([1]; developing arthritis, oral): dose dependent reduction in knee histopathology; mean ankle diameter increase over time ([3]; once daily dosage): significant reduction in mean ankle diameter increase over time; mean ankle diameter increase over time ([3]; twice daily dosage): significant reduction in mean ankle diameter increase over time; average paw volume increase ([4]; rat, in vivo): dose dependent reduction in the average paw volume increase; toxicity or other adverse reaction as measured by weight loss ([4]; rat, in vivo): does not exhibit toxicity or other adverse reaction; inhibition of allergen induced activation of basophilic granulocytes, active range (basophilic granulocytes): sub micromolar range |
| C[C@H](Nc1ncnc2ccsc12)c1cc2cccc(Cl)c2c(=O)n1-c1ccccc1 [Compound 344] | ≥ 3 |  |
| CNc1ncc(C(F)(F)F)c(N[C@@H](C)c2cc3cccc(Cl)c3c(=O)n2-c2ccccc2)n1 [Compound 354] | ≥ 3 |  |
| [2H]c1nc2c(N[C@@H](C)c3cc4cccc(Cl)c4c(=O)n3C3CC3)ncnc2[nH]1 [Compound 350] | ≥ 3 |  |
| C[C@H](Nc1ncnc2c1ncn2C)c1cc2cccc(Cl)c2c(=O)n1-c1ccccc1 [Compound 340] | ≥ 3 |  |
| C[C@H](Nc1ncnc2[nH]cnc12)c1cc2cccc(F)c2c(=O)n1-c1ccccc1 [Compound 330] | ≥ 3 |  |
| [2H]c1nc2c(N[C@@H](C)c3cc4cccc(C)c4c(=O)n3-c3ccccc3)ncnc2[nH]1 [Compound 349] | ≥ 3 |  |
| C[C@H](Nc1ncnc2sccc12)c1cc2cccc(Cl)c2c(=O)n1-c1ccccc1 [Compound 343] | ≥ 3 |  |
| Cc1ccccc1-n1c(Cn2nc(-c3cn[nH]c3)c3c(N)ncnc32)cc2cccc(Cl)c2c1=O [Compound 336] | ≥ 3 |  |
| Cc1csc2ncnc(N[C@@H](C)c3cc4cccc(Cl)c4c(=O)n3-c3ccccc3)c12 [Compound 352] | ≥ 3 |  |
| C[C@H](Nc1ncnc2[nH]cnc12)c1cc2cccc(F)c2c(=O)n1-c1cccc(F)c1 [Compound 331] | ≥ 3 |  |
| C[C@H](Nc1ncnc2[nH]c(Cl)nc12)c1cc2cccc(Cl)c2c(=O)n1-c1ccccc1 [Compound 333] | ≥ 3 |  |
| C[C@H](Nc1ncnc2[nH]cnc12)c1cc2cccc(F)c2c(=O)n1-c1ccc(F)cc1 [Compound 332] | ≥ 3 |  |
| C[C@H](Nc1ncnc2[nH]cnc12)c1cc2cccc(Cl)c2c(=O)n1-c1ccc(F)cc1 [Compound 329] | ≥ 3 |  |
| C[C@H](Nc1ncnc2[nH]cnc12)c1cc2ncccc2c(=O)n1-c1ccccc1 [Compound 357] | ≥ 3 |  |
| C[C@H](Nc1nc(N)ncc1C(F)(F)F)c1cc2cccc(Cl)c2c(=O)n1-c1ccccc1 [Compound 346] | ≥ 3 |  |
| C[C@H](Nc1ncnc2[nH]cnc12)c1cc2cccc(Cl)c2c(=O)n1-c1ccccc1 [compound 292, (S)-3-(1-(9H-purin-6-ylamino)ethyl)-8-chloro-2-phenylisoquinoline-1(2H)-one] |  | increase in ankle diameter over time [1]: reducing the increase in ankle diameter over time; increase in ankle diameter over time ([4]; dose not stated): reducing the increase in ankle diameter over time; LPS-induced total leukocyte neutrophil influx [5]: inhibiting LPS-induced total leukocyte neutrophil influx; eosinophil influx [6]: inhibiting eosinophil influx |
| C[C@H](Nc1ncnc2[nH]cnc12)c1cc2cccc(Cl)c2c(=O)n1-c1cccc(F)c1 [Compound 328] | ≥ 3 |  |
| Cc1cccc2cc([C@H](C)Nc3ncnc4[nH]cnc34)n(-c3ccccc3)c(=O)c12 [compound 196] |  | increase in ankle diameter over time [1]: reducing the increase in ankle diameter over time |
| Cc1cccc2cc([C@H](C)Nc3ncnc4[nH]cnc34)n(C3CC3)c(=O)c12 [compound 200, (S)-3-(1-(9H-purin-6-ylamino)ethyl)-2-cyclopropyl-8-methylisoquinolin-1(2H)-one] |  | increase in ankle diameter over time [1]: reducing the increase in ankle diameter over time |
| Nc1ncnc2c1c(-c1cn[nH]c1)nn2Cc1cc2cccc(Cl)c2c(=O)n1-c1ccccc1 [Compound 338] | ≥ 3 |  |
| Nc1ncnc2c1c(-c1cn[nH]c1)nn2Cc1cc2cccc(Cl)c2c(=O)n1-c1cccc(F)c1 [Compound 339] | ≥ 3 |  |
